# Laboratory results as given in US8580710B2, “Pesticidal active mixtures comprising aminothiazoline compounds” (BASF SE, priority 2008, dated 2013).
# Where “and” joins values, the source holds several entries; their conditions need not be identical. Equal entries are not always repeated.
# Legend:
# [1] = system: vetch aphid (Megoura viciae); assay: Test B.1: control of vetch aphid on broad bean leaf disks, contact or systemic; type: in vivo; details: sprayed on leaf disks, 5 days
# Method: For evaluating control of vetch aphid (Megoura viciae) through contact or systemic means the test unit consisted of 24-well-microtiter plates containing broad bean leaf disks.
# The compounds or mixtures were formulated using a solution containing 75 wt % water and 25 wt % DMSO. Different concentrations of formulated compounds or mixtures were sprayed onto the leaf disks at 2.5 μl, using a custom built micro atomizer, at two replications.
# (§1) For experimental mixtures in these tests identical volumes of both mixing partners at the desired concentrations respectively, were mixed together.
# After application, the leaf disks were air-dried and 5-8 adult aphids placed on the leaf disks inside the microtiter plate wells. The aphids were then allowed to suck on the treated leaf disks and incubated at 23±1° C., 50±5% RH (relative humidity) for 5 days. Aphid mortality and fecundity was then visually assessed.
# [2] = system: boll weevil (Anthonomus grandis); assay: Test B.3: control of boll weevil, insect diet with eggs; type: in vivo; details: sprayed on insect diet, 5 days
# Method: For evaluating control of boll weevil (Anthonomus grandis) the test unit consisted of 24-well-microtiter plates containing an insect diet and 20-30 A. grandis eggs.
# The compounds or mixtures were formulated using a solution containing 75 wt % water and 25 wt % DMSO. Different concentrations of formulated compounds or mixtures were sprayed onto the insect diet at 20 μl, using a custom built micro atomizer, at two replications.
# as §1
# After application, microtiter plates were incubated at 23±1° C., 50±5% RH for 5 days. Egg and larval mortality was visually assessed.
# [3] = system: tobacco budworm (Heliothis virescens); assay: Test B.5: control of tobacco budworm, insect diet with eggs; type: in vivo; details: 5 days
# Method: For evaluating control of tobacco budworm (Heliothis virescens) the test unit consisted of 96-well-microtiter plates containing an insect diet and 15-25 H. virescens eggs.
# The compounds or mixtures were formulated using a solution containing 75 wt % water and 25 wt % DMSO. Different concentrations of formulated compounds or mixtures were sprayed onto the insect diet at 10 μl, using a custom built micro atomizer, at two replications.
# as §1
# (§2) After application, microtiter plates were incubated at 28±1° C., 80±5% RH for 5 days. Egg and larval mortality was visually assessed.
# [4] = system: green peach aphid (Myzus persicae); assay: Test B.2: control of green peach aphid through systemic means, artificial diet under membrane; type: in vivo; details: 3 days
# Description: For evaluating control of green peach aphid (Myzus persicae) through systemic means the test unit consisted of 96-well-microtiter plates containing liquid artificial diet under an artificial membrane.
# The compounds or mixtures were formulated using a solution containing 75 wt % water and 25 wt % DMSO. Different concentrations of formulated compounds or mixtures were pipetted into the aphid diet, using a custom built pipetter, at two replications.
# as §1
# After application, 5-8 adult aphids were placed on the artificial membrane inside the microtiter plate wells. The aphids were then allowed to suck on the treated aphid diet and incubated at 23±1° C., 50±5% RH for 3 days. Aphid mortality and fecundity was then visually assessed. In all cases, a synergistic control effect according to Colby's equation was observed.
# [5] = system: Mediterranean fruitfly (Ceratitis capitata); assay: Test B.4: control of Mediterranean fruitfly, insect diet with eggs; type: in vivo; details: 5 days
# Method: For evaluating control of Mediterranean fruitfly (Ceratitis capitata) the test unit consisted of 96-well-microtiter plates containing an insect diet and 50-80 C. capitata eggs.
# The compounds or mixtures were formulated using a solution containing 75 wt % water and 25 wt % DMSO. Different concentrations of formulated compounds or mixtures were sprayed onto the insect diet at 5 μl, using a custom built micro atomizer, at two replications.
# as §1, §2
# [6] = 100 ppm sprayed onto insect diet
# [7] = 4 ppm in aphid diet, mortality and fecundity
# [8] = 0.4 ppm sprayed onto insect diet
# [9] = 10 ppm sprayed onto insect diet
# [10] = 40 ppm sprayed onto insect diet
compound,measurement,setting,value
Cc1cc(C)cc(CC(NC2=NCCS2)c2cccc3cccnc23)c1 (stereo not drawn),melting point,,95 to 96 °C
Cc1cc(C)cc(CC(NC2=NCCS2)c2cccc3c2C(C)(C)C(=O)N3C)c1 (stereo not drawn),melting point,,270 to 272 °C
Cc1cc(C)cc(CC(NC2=NCCS2)c2cccc3c2CCC3)c1 (stereo not drawn),melting point,,120 to 124 °C
Cc1cc(C)cc(CC(NC2=NCCS2)c2cccc3c2CCCC3)c1 (stereo not drawn),melting point,,139 to 141 °C
CC1(C)C(C=C(Cl)Cl)C1C(=O)OC(C#N)c1cccc(Oc2ccccc2)c1 (stereo not drawn) [alphacypermethrin],Average Control,[1]; 0.08 ppm,0%
same,Average Control,[1]; 2 ppm,50%
same,Average Control,[2]; 0.04 ppm,25%
Cc1cc(C)cc(CC(N=C2NCCS2)c2cccc3c2OCCO3)c1 (stereo not drawn) [compound C.I-27],Average Control [%],[3]; [6],0%
same,Average Control,[1]; 0.16 ppm,0%
same,Average Control [%],[4]; 0.16 ppm in aphid diet,0%
same,Average Control [%],[4]; [7],0%
same,Average Control [%],[4]; 20 ppm in aphid diet,0%
same,Average Control [%],[5]; 0.16 ppm sprayed onto insect diet,0%
same,Average Control [%],[5]; 20 ppm sprayed onto insect diet,0%
same,Average Control [%],"[5]; 100 ppm sprayed onto insect diet, egg and larval mortality",0%
same,Average Control,[2]; 0.16 ppm,0%
same,Average Control,[2]; 0.8 ppm,0%
same,Average Control,[2]; 20 ppm,0%
same,Average Control,[2]; 100 ppm,0%
Cc1cc(C)cc(CC(N=C2NCCS2)c2cccc3c2OCC3)c1 (stereo not drawn) [compound C.I-47],Average Control [%],"[3]; 4 ppm sprayed onto insect diet, egg and larval mortality",0%
same,Average Control,[1]; 0.16 ppm,0%
same,Average Control,[1]; 0.8 ppm,50%
same,Average Control [%],[4]; 0.8 ppm in aphid diet,0%
same,Average Control [%],[4]; [7],25% and 50%
CNC(=O)c1cc(C#N)cc(C)c1NC(=O)c1cc(Br)nn1-c1ncccc1Cl [cyazypyr],Average Control [%],[3]; [8],0%
same,Average Control,[1]; 0.4 ppm,0%
same,Average Control [%],[5]; [9],50%
same,Average Control,[2]; 0.4 ppm,0%
N#Cc1nn(-c2c(Cl)cc(C(F)(F)F)cc2Cl)c(N)c1[S+]([O-])C(F)(F)F (stereo not drawn) [fipronil],Average Control [%],[4]; 2 ppm in aphid diet,50%
same,Average Control [%],[5]; [8],25%
N#CCNC(=O)c1cnccc1C(F)(F)F [flonicamid],Average Control [%],[3]; [6],0%
same,Average Control,[1]; 0.8 ppm,0%
same,Average Control [%],[4]; [7],0%
same,Average Control,[2]; 100 ppm,0%
O=[N+]([O-])NC1=NCCN1Cc1ccc(Cl)nc1 [imidacloprid],Average Control,[1]; 0.016 ppm,0%
same,Average Control,[1]; 2 ppm,50%
same,Average Control [%],[4]; 0.4 ppm in aphid diet,50%
CC(C)(C)c1ccc(CSc2cnn(C(C)(C)C)c(=O)c2Cl)cc1 [pyridaben],Average Control [%],[3]; [10],0%
same,Average Control [%],[5]; [10],25%
same,Average Control,[2]; 8 ppm,50%
CNC(=O)c1cc(Cl)cc(C)c1NC(=O)c1cc(Br)nn1-c1ncccc1Cl [rynaxypyr],Average Control,[1]; 0.4 ppm,0%
CCOC(=O)OC1=C(c2cc(C)ccc2C)C(=O)N[C@]12CC[C@@H](OC)CC2 [spirotetramat],Average Control,[1]; 0.8 ppm,0%
same,Average Control [%],[4]; [7],0%
same,Average Control [%],[4]; 20 ppm in aphid diet,0%
CN1COCN(Cc2cnc(Cl)s2)/C1=N\[N+](=O)[O-] [thiamethoxam],Average Control [%],[5]; [9],25%
same,Average Control,[2]; 2 ppm,25%
abamectin,Average Control,[1]; 0.08 ppm,0%
same,Average Control [%],[4]; 0.016 ppm in aphid diet,0%
same,Average Control [%],[4]; 0.08 ppm in aphid diet,0%
same,Average Control [%],[5]; 0.016 ppm sprayed onto insect diet,0%
same,Average Control,[2]; 0.016 ppm,25%
